Measurements reported in publication PMC8080589, “Modulation of αVβ6 integrin in osteoarthritis-related synovitis and the interaction with VTN(381–397 a.a.) competing for TGF-β1 activation” (Experimental & Molecular Medicine, 2021).
Ends that are not written are not given here.

Assays:
[1] = system: β6 integrin subunit expression, human fibroblast-like synoviocytes (FLSs); experiment: β6 subunit expression in FLSs by western blot after stimulation; assay type: cell-based; conditions: OA FLSs, western blot normalized to GAPDH; IL-1β, IL-6, TNF-α 10 ng/mL 3 or 7 days; prednisolone, dexamethasone 1 μM 3 or 7 days; HMGB1 10, 50, 100 ng/mL 3 days; S100A9, S100A12 100, 200 ng/mL 3 days or 24 h; AGE-BSA 50, 100, 200 μg/mL 3 days or 24 h; menadione 25–50–100 μM 3 h; H2O2 100–200–400 μM 2 h
Protocol: (§1) Synovial membranes were obtained from 22 OA patients (14 females, 8 males; mean age 69.8 ± 9.6 years, BMI 30.9 ± 6.8) during knee replacement, and primary synovial fibroblasts were isolated as explained previously. The research ethics committee of CHU de Liege (Belgium) approved the study, and the patient gave informed consent to allow research procedures on samples. Human fibroblast-like synoviocytes (FLSs) were then cultured in DMEM supplemented with 10% FBS, 1% Pen/Strep, and 1% L-glutamine (all from Lonza; Basel, Switzerland) at 37 °C in an atmosphere of 5% CO2. In a plate, 5 × 10^4 FLSs were stimulated with different compounds to analyze the modulation of αVβ6: (i) TGF-β1, TNF-α, IL-1β, or IL-6 were used for 3 or 7 days at a concentration of 10 ng/mL; (ii) among the danger-associated molecular patterns, high-mobility group box 1 (HMGB1) was tested at 10, 50, and 100 ng/mL for 3 days, while S100A9 and S100A12 were tested at 100 and 200 ng/mL for 3 days or 24 h; (iii) advanced glycation end product (AGE-BSA) was tested at 50, 100, and 200 μg/mL for 3 days or 24 h; (iv) prednisolone and dexamethasone were used at 1 μM for 3 or 7 days; and (v) menadione or H2O2 was used to induce oxidative stress at 25–50–100 μM (3 h) and 100–200–400 μM (2 h), respectively, without FBS in the medium.
(§2) The expression of αV and β6 subunits and α-SMA in FLSs was evaluated by western blot analysis. Cells were scraped from plates and lysed with lysis buffer (25 mM HEPES, 150 mM NaCl, 0.5% Triton, 10% glycerol, 1 mM dithiothreitol) containing phosphatase inhibitors (25 mM β-glycerophosphate, 1 mM Na3VO4, and 1 mM NaF) and complete protease inhibitor mixture (Roche Applied Science; Penzberg, Germany). Total proteins were separated by 10% SDS–PAGE gels (12% for α-SMA) and transferred onto PVDF membranes. The membranes were then incubated with anti-αV polyclonal antibody (1:250 dilution) (Cell Signaling Technology; Boston, MA, USA), anti-β6 polyclonal antibody (1:1000 dilution) (Abcam; Cambridge, UK) or anti-α-SMA monoclonal antibody (Agilent; Santa Clara, CA, USA; 1:1000 dilution). HRP-conjugated anti-rabbit antibody (1:1000 dilution) (Cell Signaling Technology) was used as the secondary antibody. Immunoblots were developed using the ECL chemiluminescent detection system. Rabbit anti-glyceraldehyde 3-phosphate dehydrogenase (GAPDH) (Merck) or rabbit anti-heat shock protein 90 (Hsp90; Santa Cruz) was used as loading controls at a dilution of 1:10,000 or 1:200, respectively. Values of optical intensity were normalized to GAPDH or Hsp90 levels. Data were analyzed by paired Wilcoxon test; a p-value < 0.05 was considered statistically significant. Statistical analysis was performed with GraphPad Prism 6 software (San Diego, CA, USA).
IL-1β 10 ng/mL 3 days IL-6 10 ng/mL 3 daysIL-6 Prednisolone 1µM 3 daysPrednisolone
0.0 control IL-6 0.0 control PRE
Dexamethasone 1µM 3 daysDexamethasone TNF-α 10 ng/mL 3 days AGE 50 µg/mL 24 h

[2] = system: αV integrin subunit expression, human fibroblast-like synoviocytes (FLSs); experiment: αV subunit expression in FLSs by western blot after stimulation; assay type: cell-based; conditions: OA FLSs, western blot normalized to GAPDH; IL-1β, IL-6, TNF-α 10 ng/mL 3 or 7 days; prednisolone, dexamethasone 1 μM 3 or 7 days; HMGB1 10, 50, 100 ng/mL 3 days; S100A9, S100A12 100, 200 ng/mL 3 days or 24 h; AGE-BSA 50, 100, 200 μg/mL 3 days or 24 h; menadione 25–50–100 μM 3 h; H2O2 100–200–400 μM 2 h
Protocol: as §1, §2
Supplementary information SI3.
Variation of αV and β6 expression in human fibroblast-like synoviocytes after stimulation with different compounds. Time of stimulation and employed substances are indicated. The graphs represent αV and β6 expression before and after stimulation, obtained by western blot. Values were normalized to GAPDH and analysed by paired Wilcoxon test.
IL-1β 10 ng/mL 3 days IL-6 10 ng/mL 3 daysIL-6 Prednisolone 1µM 3 daysPrednisolone […]
Dexamethasone 1µM 3 days TNF-α 10 ng/mL 3 days TGF-β 10 ng/mL 3 days
(1 picture or pasted object on this page, not shown here)
0.0 control IL-6 0.0 control PRE […]

integrin αVβ6 = target: T1, integrin αVβ6 (Homo sapiens, UniProt P06756+P18564); experiment: Competition study, 125ISIB-echistatin vs ligands on coated αVβ6; assay type: binding; conditions: competition with 20 nM 125ISIB-echistatin, recombinant human αVβ6 coated at 1.8 µg/mL, IBB pH 7.4 / 0.5% BSA, 2 h room temperature, duplicate wells, gamma counter, five-parameter logistic
T1 construct: purchased R&D System; Minneapolis, MN, USA
Protocol: (§3) A competition study was performed to investigate the interaction of VTN(381–397 a.a.) with five different integrins. Radiolabeled echistatin, a disintegrin known to bind integrin receptors, was used as a tracer for the binding assays. Lyophilized echistatin was provided by Bachem (Bubendorf, Switzerland) and radiolabeled by conjugation with a radioiodinated benzoate (^125ISIB) to the epsilon amino group of lysine side chains. For the five integrins, α5β1, αVβ1, αVβ3, αVβ5, and αVβ6 (R&D System; Minneapolis, MN, USA), a solution at 1.8 µg/mL was prepared with integrin-binding buffer (IBB; 20 mM Tris pH 7.4, 150 mM NaCl, 2 mM CaCl2, 1 mM MgCl2, 1 mM MnCl2). Nunc Maxisorp Module plates were coated overnight at 4 °C with integrin complex at 1.8 µg/mL. After the wells were washed with sample buffer (IBB, 0.5% BSA), blocking solution (IBB, 2% BSA) was added, and the microplate was incubated for 2 h at room temperature. The wells were then washed three times with IBB/0.5% BSA. Then, ^125ISIB-echistatin was diluted in sample buffer to fixed concentrations of 4, 4, 8, 8, and 20 nM for α5β1, αVβ1, αVβ3, αVβ5, and αVβ6 competition studies, respectively. The ^125ISIB-echistatin was mixed with sample buffer at a ratio of 1:1 (total binding = control well) or with increasing concentrations of ligands (Supplementary information SI1) [complete VTN, VTN(381–397 a.a.), VTN(365–381 a.a.)] at a ratio 1:1 and added to wells in duplicate. We used 1,4,7-triazacyclononane-1,4,7-triacetic acid (NOTA) as a negative control. […] After rinsing, bound radioactivity was quantified using a gamma counter. The percentage of relative binding of radiolabeled echistatin was calculated as follows: radioactivity in the test well*100/radioactivity in the reference well. […] For comparison of the potency of ligands in inhibiting bound ^125ISIB-echistatin for different integrin complexes, the half-maximal inhibitory concentration (IC50) was calculated. The IC50 value was determined by constructing a dose–response curve and examining the effect of different concentrations of ligands on ^125ISIB-echistatin binding. […]
To determine if VTN(381–397 a.a.) could interact with integrins, we investigated its ability to compete with radiolabeled echistatin for binding to five different integrin complexes: α5β1, αVβ1, αVβ3, αVβ5 and αVβ6. […] First, the binding affinity of echistatin to the five integrins was measured by determining the equilibrium dissociation constant (KD). […] The fixed concentration of radiolabeled echistatin was determined according to its KD value. For each ligand concentration, the relative binding of ^125ISIB-echistatin to coated integrins was then measured, and values were plotted versus the logarithm of ligand concentration.

integrin αVβ3 = target: T2, integrin αVβ3 (Homo sapiens, UniProt P05106+P06756); experiment: Competition study, 125ISIB-echistatin vs ligands on coated αVβ3; assay type: binding; conditions: competition with 8 nM 125ISIB-echistatin, recombinant human αVβ3 coated at 1.8 µg/mL, IBB pH 7.4 / 0.5% BSA, 2 h room temperature, duplicate wells
T2 construct: purchased R&D System; Minneapolis, MN, USA
Protocol: as §3, with “µg/mL.” for “µg/mL. After the wells were washed with sample buffer (IBB, 0.5% BSA), blocking solution (IBB, 2% BSA) was added, and the microplate was incubated for 2 h at room temperature. The wells were then washed three times with IBB/0.5% BSA. Then, ^125ISIB-echistatin was diluted in sample buffer to fixed concentrations of 4, 4, 8, 8, and 20 nM for α5β1, αVβ1, αVβ3, αVβ5, and αVβ6 competition studies, respectively. The ^125ISIB-echistatin was mixed with sample buffer at a ratio of 1:1 (total binding = control well) or with increasing concentrations of ligands (Supplementary information SI1) [complete VTN, VTN(381–397 a.a.), VTN(365–381 a.a.)] at a ratio 1:1 and added to wells in duplicate. We used 1,4,7-triazacyclononane-1,4,7-triacetic acid (NOTA) as a negative control.”

integrin αVβ5 = target: T3, integrin αVβ5 (Homo sapiens, UniProt P06756+P18084); experiment: Competition study, 125ISIB-echistatin vs ligands on coated αVβ5; assay type: binding; conditions: competition with 8 nM 125ISIB-echistatin, recombinant human αVβ5 coated at 1.8 µg/mL, IBB pH 7.4 / 0.5% BSA, 2 h room temperature, duplicate wells
T3 construct: purchased R&D System; Minneapolis, MN, USA
Protocol: as §3, with “µg/mL.” for “µg/mL. After the wells were washed with sample buffer (IBB, 0.5% BSA), blocking solution (IBB, 2% BSA) was added, and the microplate was incubated for 2 h at room temperature. The wells were then washed three times with IBB/0.5% BSA. Then, ^125ISIB-echistatin was diluted in sample buffer to fixed concentrations of 4, 4, 8, 8, and 20 nM for α5β1, αVβ1, αVβ3, αVβ5, and αVβ6 competition studies, respectively. The ^125ISIB-echistatin was mixed with sample buffer at a ratio of 1:1 (total binding = control well) or with increasing concentrations of ligands (Supplementary information SI1) [complete VTN, VTN(381–397 a.a.), VTN(365–381 a.a.)] at a ratio 1:1 and added to wells in duplicate. We used 1,4,7-triazacyclononane-1,4,7-triacetic acid (NOTA) as a negative control.”

T1 sequence (P06756 31-992 limits assumed): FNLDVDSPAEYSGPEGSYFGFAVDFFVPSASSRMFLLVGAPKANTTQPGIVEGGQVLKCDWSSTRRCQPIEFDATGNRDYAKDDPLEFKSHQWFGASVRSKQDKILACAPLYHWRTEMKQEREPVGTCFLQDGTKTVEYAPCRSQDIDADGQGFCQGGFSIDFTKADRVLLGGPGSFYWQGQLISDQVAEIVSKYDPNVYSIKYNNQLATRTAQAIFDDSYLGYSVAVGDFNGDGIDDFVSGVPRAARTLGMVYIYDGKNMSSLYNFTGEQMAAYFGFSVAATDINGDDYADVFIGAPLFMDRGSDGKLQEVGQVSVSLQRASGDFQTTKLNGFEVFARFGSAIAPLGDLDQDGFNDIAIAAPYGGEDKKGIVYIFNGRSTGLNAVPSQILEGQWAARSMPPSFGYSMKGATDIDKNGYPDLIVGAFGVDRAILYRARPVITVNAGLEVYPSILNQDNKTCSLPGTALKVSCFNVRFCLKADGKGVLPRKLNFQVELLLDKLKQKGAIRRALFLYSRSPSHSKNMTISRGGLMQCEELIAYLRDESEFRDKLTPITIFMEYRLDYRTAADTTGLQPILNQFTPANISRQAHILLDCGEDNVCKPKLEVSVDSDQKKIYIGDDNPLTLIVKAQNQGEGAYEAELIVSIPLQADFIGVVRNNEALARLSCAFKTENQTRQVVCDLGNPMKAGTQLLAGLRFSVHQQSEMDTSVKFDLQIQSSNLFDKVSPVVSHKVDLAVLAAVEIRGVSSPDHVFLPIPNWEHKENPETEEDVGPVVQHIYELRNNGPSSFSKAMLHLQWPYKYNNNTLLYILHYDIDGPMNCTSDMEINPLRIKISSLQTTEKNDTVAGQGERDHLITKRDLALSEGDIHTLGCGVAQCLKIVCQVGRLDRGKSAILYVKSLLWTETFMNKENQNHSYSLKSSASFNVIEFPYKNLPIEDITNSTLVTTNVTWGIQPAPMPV
T1 sequence (P18564 22-707 limits assumed): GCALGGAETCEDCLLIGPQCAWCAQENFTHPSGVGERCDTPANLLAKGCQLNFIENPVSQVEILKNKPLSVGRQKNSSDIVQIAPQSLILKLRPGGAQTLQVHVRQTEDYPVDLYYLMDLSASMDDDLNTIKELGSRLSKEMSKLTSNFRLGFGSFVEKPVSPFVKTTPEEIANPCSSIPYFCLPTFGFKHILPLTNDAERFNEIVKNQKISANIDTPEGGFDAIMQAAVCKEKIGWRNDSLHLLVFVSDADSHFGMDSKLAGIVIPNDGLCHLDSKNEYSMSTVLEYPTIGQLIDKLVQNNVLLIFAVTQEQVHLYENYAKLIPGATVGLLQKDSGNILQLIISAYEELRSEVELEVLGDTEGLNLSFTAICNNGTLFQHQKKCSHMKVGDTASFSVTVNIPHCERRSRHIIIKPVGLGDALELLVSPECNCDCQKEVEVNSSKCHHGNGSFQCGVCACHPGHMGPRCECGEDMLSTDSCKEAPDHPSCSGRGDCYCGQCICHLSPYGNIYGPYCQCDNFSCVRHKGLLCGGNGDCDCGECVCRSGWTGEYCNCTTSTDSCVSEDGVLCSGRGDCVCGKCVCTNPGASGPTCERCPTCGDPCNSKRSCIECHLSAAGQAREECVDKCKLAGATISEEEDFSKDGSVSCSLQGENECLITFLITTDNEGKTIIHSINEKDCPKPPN
T2 sequence (P06756 31-992 limits assumed): as the sequence (P06756 31-992 limits assumed) above
T2 sequence (P05106 27-718 limits assumed): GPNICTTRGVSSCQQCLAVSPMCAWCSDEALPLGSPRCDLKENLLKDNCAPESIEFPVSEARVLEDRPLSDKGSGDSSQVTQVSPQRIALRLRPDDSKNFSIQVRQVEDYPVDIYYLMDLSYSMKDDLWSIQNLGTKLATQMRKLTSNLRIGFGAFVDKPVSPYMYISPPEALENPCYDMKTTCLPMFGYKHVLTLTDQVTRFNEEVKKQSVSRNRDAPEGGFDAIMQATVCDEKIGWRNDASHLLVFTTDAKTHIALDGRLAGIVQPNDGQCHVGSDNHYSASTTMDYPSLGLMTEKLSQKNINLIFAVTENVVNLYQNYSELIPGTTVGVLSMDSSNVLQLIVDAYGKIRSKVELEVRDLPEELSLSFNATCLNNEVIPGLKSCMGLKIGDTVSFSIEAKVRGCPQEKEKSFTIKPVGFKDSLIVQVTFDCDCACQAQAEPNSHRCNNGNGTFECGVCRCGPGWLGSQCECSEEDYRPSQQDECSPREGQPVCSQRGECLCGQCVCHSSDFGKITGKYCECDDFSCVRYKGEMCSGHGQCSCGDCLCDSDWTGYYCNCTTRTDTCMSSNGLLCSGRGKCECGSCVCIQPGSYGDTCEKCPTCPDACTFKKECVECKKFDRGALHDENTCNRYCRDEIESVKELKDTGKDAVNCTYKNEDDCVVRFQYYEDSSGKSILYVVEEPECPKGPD
T3 sequence (P06756 31-992 limits assumed): as the sequence (P06756 31-992 limits assumed) above
T3 sequence (P18084 24-719 limits assumed): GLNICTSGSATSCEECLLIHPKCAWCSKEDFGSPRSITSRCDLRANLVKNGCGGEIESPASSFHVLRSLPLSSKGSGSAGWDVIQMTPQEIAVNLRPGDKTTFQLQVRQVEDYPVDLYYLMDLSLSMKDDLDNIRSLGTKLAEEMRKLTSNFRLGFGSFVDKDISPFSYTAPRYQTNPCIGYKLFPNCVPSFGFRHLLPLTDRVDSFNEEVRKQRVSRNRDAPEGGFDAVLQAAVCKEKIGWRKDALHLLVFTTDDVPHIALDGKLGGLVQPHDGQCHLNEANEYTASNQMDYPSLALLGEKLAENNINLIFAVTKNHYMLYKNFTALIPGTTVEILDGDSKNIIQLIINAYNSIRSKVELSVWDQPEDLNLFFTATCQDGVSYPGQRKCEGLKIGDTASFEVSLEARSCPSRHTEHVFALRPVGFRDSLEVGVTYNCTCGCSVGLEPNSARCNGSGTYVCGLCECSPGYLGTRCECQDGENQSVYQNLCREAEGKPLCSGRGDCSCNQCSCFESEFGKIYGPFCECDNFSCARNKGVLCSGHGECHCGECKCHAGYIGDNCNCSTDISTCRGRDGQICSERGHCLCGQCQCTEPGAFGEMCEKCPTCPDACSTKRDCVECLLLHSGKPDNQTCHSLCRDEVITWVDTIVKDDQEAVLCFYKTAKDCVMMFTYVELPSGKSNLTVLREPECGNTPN

| Molecule | effect on β6 subunit expression [1] | effect on αV subunit expression [2] | IC50 (integrin αVβ6) [nM] | IC50 (integrin αVβ3) [nM] | IC50 (integrin αVβ5) [nM] |
| --- | --- | --- | --- | --- | --- |
| OO [H2O2] | none of these treatments influenced the expression levels of the αV and β6 integrin subunits | none of these treatments influenced the expression levels of the αV and β6 integrin subunits | – | – | – |
| C[C@@H]1C[C@H]2[C@@H]3CCC4=CC(=O)C=C[C@]4(C)[C@@]3(F)[C@@H](O)C[C@]2(C)[C@@]1(O)C(=O)CO [dexamethasone] | none of these treatments influenced the expression levels of the αV and β6 integrin subunits | none of these treatments influenced the expression levels of the αV and β6 integrin subunits | – | – | – |
| CC1=CC(=O)c2ccccc2C1=O [menadione] | none of these treatments influenced the expression levels of the αV and β6 integrin subunits | none of these treatments influenced the expression levels of the αV and β6 integrin subunits | – | – | – |
| C[C@]12C=CC(=O)C=C1CC[C@@H]1[C@@H]2[C@@H](O)C[C@@]2(C)[C@H]1CC[C@]2(O)C(=O)CO [prednisolone] | none of these treatments influenced the expression levels of the αV and β6 integrin subunits | none of these treatments influenced the expression levels of the αV and β6 integrin subunits | – | – | – |
| AGE-BSA: advanced glycation end product | none of these treatments influenced the expression levels of the αV and β6 integrin subunits | none of these treatments influenced the expression levels of the αV and β6 integrin subunits | – | – | – |
| IL-1β: proinflammatory cytokine | none of these treatments influenced the expression levels of the αV and β6 integrin subunits | none of these treatments influenced the expression levels of the αV and β6 integrin subunits | – | – | – |
| IL-6: proinflammatory cytokine | none of these treatments influenced the expression levels of the αV and β6 integrin subunits | none of these treatments influenced the expression levels of the αV and β6 integrin subunits | – | – | – |
| SQRGHSRGRNQNSRRPS [VTN(381–397 a.a.)] | – | – | 3200 | – | – |
| TNF-α | none of these treatments influenced the expression levels of the αV and β6 integrin subunits | none of these treatments influenced the expression levels of the αV and β6 integrin subunits | – | – | – |
| VTN: whole VTN protein | – | – | 250 | 1500 | 130 |
| HMGB1: danger-associated molecular pattern (protein, UniProt P09429 1-215, looked up) High mobility group protein B1: MGKGDPKKPRGKMSSYAFFVQTCREEHKKKHPDASVNFSEFSKKCSERWKTMSAKEKGKFEDMAKADKARYEREMKTYIPPKGETKKKFKDPNAPKRPPSAFFLFCSEYRPKIKGEHPGLSIGDVAKKLGEMWNNTAADDKQPYEKKAAKLKEKYEKDIAAYRAKGKPDAAKKGVVKAEKSKKKKEEEEDEEDEEDEEEEEDEEDEDEEEDDDDE | none of these treatments influenced the expression levels of the αV and β6 integrin subunits | none of these treatments influenced the expression levels of the αV and β6 integrin subunits | – | – | – |
| S100A9: danger-associated molecular pattern (protein, UniProt P06702 1-114, looked up) Protein S100-A9: MTCKMSQLERNIETIINTFHQYSVKLGHPDTLNQGEFKELVRKDLQNFLKKENKNEKVIEHIMEDLDTNADKQLSFEEFIMLMARLTWASHEKMHEGDEGPGHHHKPGLGEGTP | none of these treatments influenced the expression levels of the αV and β6 integrin subunits | none of these treatments influenced the expression levels of the αV and β6 integrin subunits | – | – | – |
